# Experimental data as given in article PMC5760651, “Peptidomimetic blockade of MYB in acute myeloid leukemia” (Nature Communications, 2018).
# Non-standard residues stand in square brackets, D forms with d. Residues, ends and D or L forms follow the SMILES beside them.
# How the values were obtained:
# [1] = system: MOLM-13, MV-411, ML-2 and HL-60 cells; test: Cell viability of AML cell lines; assay type: cell-based, human; settings: 6 days, 20 μM TG1, TG2 or TG3, 10 and 20 μM MYBMIM, peptide replacement every 48 h, compared to untreated control
# Protocol: Cells were resuspended and plated at a concentration of 2 × 10^5 cells in 200 μl in 96-well tissue culture plates. Media with peptides was replaced every 48 h. To assess the number of viable cells, cells were resuspended in PBS and 10 µl of suspension was mixed in a 1:1 ratio with 0.4% Trypan Blue (Thermo Fisher) and counted using a hemacytometer (Hausser Scientific, Horsham, PA, USA). To assess viability using an ATP-based assay, cell viability was assessed using the CellTiter-Glo Luminescent Viability assay, according to the manufacturer’s instructions (Promega). Luminescence was recorded using the Infinite M1000Pro plate reader using integration time of 250 ms (Tecan).
# MV411 and MOLM-13 cells = test: Western blot of BCL2 protein; assay type: cell-based, human; settings: 20 μM, 6 hours and 24 hours
# Protocol: Cells were lysed in RIPA buffer (Thermo Fisher) supplemented with a protease inhibitor mix comprised of AEBSF (0.5 mM concentration, Santa Cruz, SC-202041B), Bestatin (0.01 mM, Fisher/Alfa Aesar, J61106-MD), Leupeptin (0.1 mM, Santa Cruz, SC-295358B), and Pepstatin (0.001 mM, Santa Cruz, SC-45036A). Lysates were mechanically disrupted using Covaris S220 adaptive focused sonicator, according to the manufacturer’s instructions (Covaris, Woburn, CA). Lysates were cleared by centrifugation for 15 min at 18,000 × g and clarified lysates were quantified using the bicinchoninic acid assay (Pierce). Clarified lysates (20 μg of protein) were resolved using sodium dodecyl sulfate-polyacrylamide gel electrophoresis, and electroeluted using the Immobilon FL PVDF membranes (Millipore, Billerica, MA, USA). Membranes were blocked using the Odyssey Blocking buffer (Li-Cor, Lincoln, Nebraska, USA). […] Blotted membranes were visualized using secondary antibodies conjugated to IRDye 800CW or IRDye 680RD (Goat anti-rabbit, 1:15,000, and goat anti-mouse, 1:15,000) and the Odyssey CLx fluorescence scanner, according to manufacturer’s instructions (Li-Cor, Lincoln, Nebraska, USA).
# Supplementary Figure 9. BCL2 expression as measured by Western blot in MV411 and […]
# ImageJ. BCL2 protein expression is quantified as a fraction of its respective PBS control […]
# CBP/P300 = test: Streptavidin affinity purification of CBP/P300 from MV-411 cell extracts with BIO-MYBMIM, with peptide competition; assay type: binding, human; settings: 20-fold molar excess free peptide, MV-411 extracts, western blot
# Protocol: Cells were lysed in RIPA buffer (Thermo Fisher) supplemented with a protease inhibitor mix comprised of AEBSF (0.5 mM concentration, Santa Cruz, SC-202041B), Bestatin (0.01 mM, Fisher/Alfa Aesar, J61106-MD), Leupeptin (0.1 mM, Santa Cruz, SC-295358B), and Pepstatin (0.001 mM, Santa Cruz, SC-45036A). Lysates were mechanically disrupted using Covaris S220 adaptive focused sonicator, according to the manufacturer’s instructions (Covaris, Woburn, CA). Lysates were cleared by centrifugation for 15 min at 18,000 × g and clarified lysates were quantified using the bicinchoninic acid assay (Pierce). Clarified lysates (20 μg of protein) were resolved using sodium dodecyl sulfate-polyacrylamide gel electrophoresis, and electroeluted using the Immobilon FL PVDF membranes (Millipore, Billerica, MA, USA). Membranes were blocked using the Odyssey Blocking buffer (Li-Cor, Lincoln, Nebraska, USA). The following primary antibodies were used as indicated: anti-MYB (1:1000, 05-175, Millipore), anti-CBP (1:1000, PA1-847, Invitrogen), anti-BCL2 (1:1000, 200-401-222, Rockland), anti-β actin (1:1000, 8H10D10, Cell Signaling). […] Blotted membranes were visualized using secondary antibodies conjugated to IRDye 800CW or IRDye 680RD (Goat anti-rabbit, 1:15,000, and goat anti-mouse, 1:15,000) and the Odyssey CLx fluorescence scanner, according to manufacturer’s instructions (Li-Cor, Lincoln, Nebraska, USA). […]
# [2] = system: primary patient-derived MLL-rearranged leukemia cells in NSG mice; test: Patient-derived MLL-rearranged leukemia xenograft, treatment 3 days post transplantation, survival; assay type: in vivo, mouse
# Protocol: All mouse experiments were carried out in accordance with the Memorial Sloan Kettering Institutional Animal Care and Use Committee. For toxicity studies, female C57BL/6J mice (The Jackson Laboratory, Bar Harbor, Maine, USA) were treated with MYBMIM peptide suspended in PBS and administered daily through intraperitoneal injection at a dose of 25 mg/kg for a total of 7 days. Mice were sacrificed at the end of treatment for hematologic, biochemical and histologic analyses. For pharmacokinetic studies, C57BL/6J mice (The Jackson Laboratory, Bar Harbor, Maine, USA) were treated with a single IP injection of 25 mg/kg BIO-MYBMIM, and blood plasma was collected 30 min, 2 h, 4 h, and 24 h post-injection. Quantification of BIO-MYBMIM was measured using the Quant-Tag Biotin kit (Vector Labs, cat. # BDK-2000) following the manufacturer instructions. For patient-derived xenografts, two hundred thousand primary AML MLL-rearranged leukemia cells were suspended in […] of PBS and transplanted via tail vein injection into 8-week-old sublethally irradiated (200 rad) female NOD.Cg-Prkdc(scid)Il2rg(tm1Wjl)/SzJ mice (The Jackson Laboratory, Bar Harbor, Maine, USA). […] Mice were treated from days 3–17 of this study for a total of 14 days and then monitored daily with clinical examination for survival analysis.
smiles,measurement,setting,value
CC[C@@H](C)[C@@H](NC(=O)[C@@H](CCCCN)NC(=O)[C@@H](CCC(=O)O)NC(=O)[C@@H](CC(C)C)NC(=O)[C@@H](CCC(=O)O)NC(=O)[C@@H](CC(C)C)NC(=O)[C@@H](CC(C)C)NC(=O)[C@@H](CC(C)C)NC(=O)[C@@H](CCSC)NC(=O)[C@@H](CO)NC(=O)[C@H](NC(=O)[C@@H](CCC(=O)O)NC(=O)[C@@H](CC(N)=O)NC(=O)[C@@H](CCC(=O)O)NC(=O)[C@@H](CC(C)C)NC(=O)[C@@H](CCCCN)NC(C)=O)[C@H](C)O)C(=O)N[C@H](CCCNC(=N)N)C(=O)N[C@H](CCCCN)C(=O)NCC(=O)NCC(=O)N[C@H](CCCNC(=N)N)C(=O)N[C@H](CCCNC(=N)N)C(=O)N[C@H](CCCNC(=N)N)C(=O)N[C@H](CCC(N)=O)C(=O)N[C@H](CCCNC(=N)N)C(=O)N[C@H](CCCNC(=N)N)C(=O)N[C@H](CCCCN)C(=O)N[C@H](CCCCN)C(=O)N[C@H](CCCNC(=N)N)C(=O)NCC(=O)N[C@H](Cc1ccc(O)cc1)C(N)=O [MYBMIM] (Ac-[dK][dL][dE][dN][dE][dT][dS][dM][dL][dL][dL][dE][dL][dE][dK][dI][dR][dK]GG[dR][dR][dR][dQ][dR][dR][dK][dK][dR]G[dY]-NH2),Growth of AML cell lines,[1],"sustained, logarithmic reduction of growth"
same,BCL2 protein abundance,MV411 and MOLM-13 cells,significant albeit modest decrease
same,Displacement of cellular CBP/P300 from BIO-MYBMIM beads by free peptide,CBP/P300,displacement of cellular CBP/P300
same,Leukemia progression and survival,"[2]; NSG mice, 25 mg/kg IP twice daily, 14 days from 3 days post-transplantation, n = 15 per group, p = 3.8e-3 log-rank",significantly delayed leukemia progression and extended survival
same,Disease latency in secondary transplant recipients,"[2]; leukemia cells from moribund MYBMIM-treated mice vs vehicle, n = 10 per group, p < 0.0001 log-rank",significantly delayed disease latency
